How the values were obtained:
Assay type in all cases: biochemical
[1] = target: T1, catalytic domain of human matrix metalloproteinase-8 (MMP-8; neutrophil collagenase) (Homo sapiens, UniProt P22894); assay: Inhibition of catalytic domain of human MMP-8, fluorimetric assay, Dixon plot; details: recombinant catalytic domain, Mca-Pro-Leu-Gly-Leu-Dap(Dnp)-Ala-Arg-NH2 substrate
T1 construct: express heterologously only the catalytic domain, rather than the entire MMP-8, in Escherichia coli; made in house; host or cells: Escherichia coli
Excerpt: The catalytic domain of MMP-8 was chosen as a further test enzyme because of its high stability and constitutive activity, obviating the need for enzymatic or chemical activation, which is a well-known source of error, e.g. the commonly used organomercurial compounds used to activate pro-MMPs may interfere in subsequent assays or affect the activity of the enzyme, leading to erroneous interpretation of results. The cloning strategy was designed to express heterologously only the catalytic domain, rather than the entire MMP-8, in Escherichia coli. With the so-constructed expressed catalytic domain, we obtained a stable enzymatically active, highly pure enzyme that is well suited for routine investigation of the efficacy of the synthetic inhibitors and provides highly reproducible test results.
The cloning and expression of the recombinant catalytic domain of MMP-8 follows the protocol developed by Schnierer et al. (Schnierer, S., Kleine, T., Gote, T., Hilleman, A., Knäuper, V., and Tschesche, H., 1993, The recombinant catalytic domain of human neutrophil collagenase lacks type I collagen substrate specificity, Biochem. Biophys. Res. Commun. 191, 319-326).
(§1) The enzymatic cleavage of commercially available synthetic internally quenched fluorigenic peptide substrates such as 7-methylcoumarin-4-yl-acetyl-prolyleucyl-glycyl-leucyl-(dinitrophenyl-L-α,β-diaminopropionyl)-alanyl-arginylamide (Mca-Pro-Leu-Gly-Leu-Dap(Dnp)-Ala-Arg-NH2) at the scissile -Gly-Leu-peptide bond separates the fluorescent Mca group from the dinitrophenol quencher, resulting in a strong linear increase in fluorescence intensity that can be readily measured in a fluorimeter (λexitation328 nm, λemission 393 nm) over the first few minutes of the reaction. The specificity of the assay for matrix metalloproteinases is provided by the type I collagen-derived sequence -Pro-Leu-Gly-Leu- in the synthetic substrate, as well as by the incubation conditions. To test the efficacy of the synthetic collagenase/MMP inhibitors, the residual enzymatic activity remaining after an incubation of enzyme plus different amounts of inhibitor is measured at a fixed enzyme and substrate concentration. For each inhibitor, three test series at different fixed substrate concentrations were carried out. From the time-dependent increase in fluorescence intensity measured, the velocity (v) of the enzymatic activity can be calculated as increase in arbitrary fluorescence intensity units per minute. The inhibition constant Ki is calculated graphically by the method of Dixon (1953) by plotting the reciprocal of the reaction velocity 1/v on the ordinate, and the inhibitor concentration on the abscissa. The x-intercept of the linear plot is defined as minus K1 value.
(§2) 1984 μl assay buffer (100 mM Tris-HCl pH 7,5, 100 mM NaCl, 10 mM CaCl2, 0,05% Brij 35) • 2 μl inhibitor dissolved in DMSO, or DMSO alone as a solvent control • 4 μl enzyme (MMP-2, MMP-9, or the catalytic domain of MMP-8) • 10 μl Mca-Pro-Leu-Gly-Leu-Dap(Dnp)-Ala-Arg-NH2 in DMSO Method • 1. Incubate buffer, enzyme, and inhibitor for 5 min at room temperature, with stirring. • 2. Start the reaction by adding 10 μl substrate in DMSO • 3. Record the increase in fluorescence intensity over 2 min. Confirmation of the Inhibitory Activity by Protein Zymographic Analysis

[2] = target: T2, human matrix metalloproteinase-2 (MMP-2; gelatinase A) (Homo sapiens, UniProt P08253); assay: Inhibition of human matrix metalloproteinase-2 (gelatinase A); details: trypsin-activated MMP-2 from human dermal fibroblast culture supernatant; read-out: MMP-2 (50% inhibition)
T2 construct: to prepare the enzymatically active mature form of the enzyme; endogenous in cells; host or cells: human dermal fibroblasts (secreted into culture supernatant)
T2 sequence (P08253 110-660): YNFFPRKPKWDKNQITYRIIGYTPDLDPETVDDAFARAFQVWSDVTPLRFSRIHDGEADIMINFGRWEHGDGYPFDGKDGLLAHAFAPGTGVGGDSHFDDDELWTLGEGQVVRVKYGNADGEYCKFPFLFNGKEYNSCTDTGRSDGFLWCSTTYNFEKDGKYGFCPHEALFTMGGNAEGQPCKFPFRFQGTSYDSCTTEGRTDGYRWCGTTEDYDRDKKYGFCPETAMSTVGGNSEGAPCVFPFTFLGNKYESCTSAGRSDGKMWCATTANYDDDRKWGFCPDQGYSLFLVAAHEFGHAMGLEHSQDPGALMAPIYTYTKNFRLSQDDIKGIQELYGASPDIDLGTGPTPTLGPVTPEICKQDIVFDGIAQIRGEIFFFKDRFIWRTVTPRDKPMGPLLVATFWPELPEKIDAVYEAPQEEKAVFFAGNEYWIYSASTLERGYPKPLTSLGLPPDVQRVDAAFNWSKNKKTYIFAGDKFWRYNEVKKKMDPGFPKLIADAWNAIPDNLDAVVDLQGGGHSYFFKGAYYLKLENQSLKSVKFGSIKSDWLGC
Excerpt: MMP-2 is easily prepared by standard procedures from the culture medium of cultivated human fibroblasts in reasonable quantities, and is therefore readily available. […] A screening system based on the measurement of the proteolytic activity of MMP-2 was developed to analyse the inhibitory effects of the various inhibitors described in Table 1.
To this end, human dermal fibroblasts were obtained and maintained in culture using standard methods. The cell-free culture supernatant containing the secreted pro-MMP-2 was treated with trypsin. The trypsin was inactivated with the specific active-site serine proteinase inhibitor Nα-p-tosyl-L-lysine-chloromethylketone (TLCK), and the active MMP-2 was partially purified by gel filtration on Sepharose 4B. The isolated MMP-2 was identified and characterized by the use of a commercially available immunoassay.
A simple nonradioactive assay was developed to measure MMP-2 activity using gelatin as a substrate that allows both a large number of samples to be analysed in parallel and to generate kinetic data. Partially purified MMP-2 was incubated with a suitable dilution of gelatin under standardized conditions (time, buffer, pH, temperature, inhibitor, additives), and uncleaved gelatin was separated from degradation products by suction filtration through a nitrocellulose filter. High-molecular-weight gelatin is thereby bound to the nitrocellulose filter, and the low-molecular-weight gelatin-derived peptides pass through it. The nitrocellulose-bound gelatin can be stained with Ponceau S or Commassie Brilliant Blue protein stains, and the degree of staining quantified densitometrically using a commercially available electrophoresis gel documentation system supported by dedicated analytical software. The nitrocellulose filtration is conducted using a commercially available dot- or slot-blotting apparatus.
The gelatinase assay described here has been validated by comparison with results obtained with an established collagenase assay using radioactive or fluorescently labeled collagen as substrate.
as §1
1984 μl assay buffer (100 mM Tris-HCl pH 7,5, 100 mM NaCl, 10 mM CaCl2, 0,05% Brij 35) • 2 μl inhibitor dissolved in DMSO, or DMSO alone as a solvent control • 4 μl enzyme (MMP-2, MMP-9, or the catalytic domain of MMP-8) • 10 μl Mca-Pro-Leu-Gly-Leu-Dap(Dnp)-Ala-Arg-NH2 in DMSO Method • 1. […]

[3] = target: Clostridium histolyticum collagenase (EC 3.4.24.3); assay: Inhibition of Clostridium histolyticum collagenase, spectrophotometric FALGPA assay; details: chromogenic substrate FALGPA; read-out: C. histolyticum (50% inhibition)
Excerpt: The activity of Clostidium histolyticum collagenase may be readily determined by a simple spectrophotometric assay using the synthetic chromogenic peptide substrate N-(3-[2-furyl]acryloyi)-leucine-glycine-proline-alanine (FALGPA; Van Hart, H. E. and Steinbrink, D. R. 1981, Anal. Biochem. 113, 356). The degree of inhibition of the degradation of this chromogenic substrate by the addition of the various test substances described in Table 1 may be easily quantified. The enzyme and substrate are commercially available.

[4] = target: T3, human matrix metalloproteinase-9 (MMP-9; gelatinase B) (Homo sapiens, UniProt P14780); assay: Inhibition of human matrix metalloproteinase-9 (gelatinase B); details: trypsin-activated native MMP-9 from human buffy coat; read-out: MMP-9 (50% inhibition)
T3 construct: from tissue; host or cells: human buffy coat (blood leukocytes)
Method: Native MMP-9 was reproducibly obtained with reasonable yield and purity from human buffy coat. Buffy coat, to which was added an appropriate volume of 10% (v/v) Triton-X-100 to obtain a final concentration of 0,4% detergent, was shaken on ice for 30 min; then, one volume of twofold-concentrated binding buffer (40 mM Tris-HCl pH 7,5, 10 mM CaCl2, 1 M NaCl, 0,2% (v/v) Triton X-100 was added and the mixture shaken on ice for a further 30 min.
The mixture was then centrifuged for 15 min at 16,000 rpm (30,590×g) in a Kendro SS-34 rotor at 4° C. and the resulting supernatant filtered over glass wool. The filtrate was incubated batchwise with gelatin-agarose equilibrated in binding buffer for 1 h on ice with continuous shaking The MMP-9-bound gelatin-agarose was then loaded into a chromatographic tube and the column washed with at least ten bed volumes of binding buffer, or until no protein was detected by absorbance at 280 nm in the wash buffer. MMP-9 was eluted from the gelatin affinity column by application of two bed volumes of binding buffer containing 5% (v/v) dimethylsulfoxide (DMSO).
The eluate was applied to a gel filtration column of Sephadex G-75 both to exchange buffer and to eliminate small amounts of contaminating MMP-2. The G-75 column was prepared and eluted with Buffer I [20 mM Tris-HCl pH 7,5, 5 mM CaCl2, 100 mM NaCl, 0,1% (v/v) Triton X-100].
The eluted MMP-9 includes the three characterized forms of the enzyme: monomer, homodimer, and heterodimer (complex with lipokalin). The purity of MMP-9 was estimated to be ca. 90%, with the remaining contaminating protein being fibronectin and small amounts of TIMPS.
The latent MMP-9 was activated by a 30-60 min incubation at 37° C. with 1/100 vol trypsin (10 mg ml^−1). The trypsin was subsequently inactivated by addition of the serine proteinase inhibitor phenlymethylsulfonylfluoride (PMSF) or the more specific trypsin inhibitor TLCK.
as §1
as §2, with “Confirmation of the Inhibitory Activity by Protein Zymographic Analysis” left out

T1 sequence (P22894 100-262 limits assumed): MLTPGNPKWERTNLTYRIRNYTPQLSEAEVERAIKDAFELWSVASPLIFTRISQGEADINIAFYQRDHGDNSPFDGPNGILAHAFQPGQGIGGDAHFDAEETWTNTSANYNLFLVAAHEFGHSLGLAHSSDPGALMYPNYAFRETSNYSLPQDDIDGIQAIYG
T3 sequence (P14780 107-707 limits assumed): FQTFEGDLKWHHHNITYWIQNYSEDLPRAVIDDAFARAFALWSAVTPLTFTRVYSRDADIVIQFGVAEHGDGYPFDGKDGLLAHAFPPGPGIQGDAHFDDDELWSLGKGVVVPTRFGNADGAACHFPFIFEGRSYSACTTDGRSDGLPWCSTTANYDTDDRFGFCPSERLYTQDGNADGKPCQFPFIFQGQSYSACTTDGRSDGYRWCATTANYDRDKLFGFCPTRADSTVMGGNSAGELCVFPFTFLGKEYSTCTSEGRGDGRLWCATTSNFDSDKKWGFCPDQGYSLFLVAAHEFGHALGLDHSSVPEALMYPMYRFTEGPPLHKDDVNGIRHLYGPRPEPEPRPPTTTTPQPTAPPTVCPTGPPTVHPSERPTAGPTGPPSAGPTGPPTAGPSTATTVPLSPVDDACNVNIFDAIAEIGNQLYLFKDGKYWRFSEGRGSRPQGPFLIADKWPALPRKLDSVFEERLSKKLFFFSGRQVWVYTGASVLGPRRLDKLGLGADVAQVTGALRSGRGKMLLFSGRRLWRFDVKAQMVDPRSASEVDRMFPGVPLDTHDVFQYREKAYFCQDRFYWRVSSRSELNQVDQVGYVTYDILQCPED

Row | Compound | IC50 [4] | Ki [1] | IC50 [2] | IC50 [3] | MMP-8 (Ki value) [1]
1 | CC(S)Cn1c(=O)[nH]c(=O)c2ccccc21 (racemic) [Example 1, (R,S)-1-(2-mercaptopropyl)-chinazolin-2,4(1H,3H)-dione] |  | 33.3 µM | 23.3 µM | 21 µM | 
2 | CC(CS)Cn1c(=O)[nH]c2ccccc2c1=O (racemic) [Example 19, (R,S)-3-[3-(2-methyl)-mercaptopropyl]chinazolin-2,4(1H,3H)-dione] |  | 3 µM | 7.1 µM |  | 
3 | CC(C)(S)Cn1c(=O)[nH]c(=O)c2ccccc21 [Example 2, 1-(2-mercapto-2-methylpropyl)-chinazolin-2,4(1H,3H)-dione] |  |  | 143 µM |  | negative
4 | Cn1c(=O)c2ccccc2n(CCS)c1=O [Example 6, 1-(2-mercaptoethyl)-3-methylchinazolin-2,4(1H,3H)-dione] |  |  | 97.1 µM | 13.1 µM | negative
5 | CCn1c(=O)c2ccccc2n(CCS)c1=O [Example 8, 3-ethyl-1-(2-mercaptoethyl)-chinazolin-2,4(1H,3H)-dione] |  |  |  | 39.4 µM | negative
6 | COc1cc2c(=O)n(C)c(=O)n(CCS)c2cc1OC [Example 10, 6,7-dimethoxy-1-(2-mercaptoethyl)-3-methyl-chinazolin-2,4(1H,3H)-dione] |  |  | 6.3 µM | 31.5 µM | 
7 | O=c1c2ccccc2n(CCS)c(=O)n1Cc1ccccc1 [Example 11, 3-benzyl-1-(2-mercaptoethyl)-chinazolin-2,4(1H,3H)-dione] |  | 33.3 µM |  | 22.4 µM | 
8 | O=c1[nH]c2ccccc2c(=O)n1CCCCCS [Example 13, 3-(5-mercaptopent-1-yl)-chinazolin-2,4(1H,3H)-dione] |  | 20 µM |  |  | 

Further lines, with some results ahead:

Row | IC50 [4] | Compound | Ki [1] | IC50 [2] | IC50 [3] | MMP-8 (Ki value) [1]
9 | 43.4 µM | CCn1c(=O)c2ccccc2n(CCCS)c1=O [Example 9, 3-ethyl-1-(3-mercaptoprop-1-yl)-chinazolin-2,4(1H,3H)-dione] |  | 13.9 µM |  | 
10 | 71.4 µM | Cn1c(=O)c2ccccc2n(CCCSCC(=O)NO)c1=O [Example 20, N-hydroxy-2-[3-(methyl-2,4-dioxo-3,4-dihydro-2H-chinazolin-1-yl)-propylsulfanyl]acetamide] |  |  |  | 

From US6872727B1, “Polycyclic pyrimidine -2,4(1H,3H)-diones with functionalized alkyl residues at the 1- and/or 3-position(s); methods for their synthesis and pharmaceutical preparation” (Privates Institut fur Biomedizinische Forschung und Beratung, priority 1999, dated 2005)
